Laboratory results taken from patent publication US10829742B2, “Production of xylitol from glucose by a recombinant strain” (ROQUETTE FRERES, priority 2014, dated 2020).
Where two headings read alike, the source gives them in different places.

Tests used:
[1] = test system: NADPH-specific D-ketopentose-oxidoreductase; conditions: crude extract; cited from earlier work
[2] = test system: D-Ribulose-5-P 3-epimerase; conditions: crude extract; cited from earlier work
[3] = test system: Acid phosphatase; conditions: crude extract; cited from earlier work
[4] = test system: D-Ribose-5-P keto-isomerase; conditions: crude extract; cited from earlier work
[5] = test system: NADH-specific D-ketopentose-oxidoreductase; conditions: crude extract; cited from earlier work
[6] = test system: Transketolase; conditions: crude extract, cited from earlier work
[7] = test system: NADPH-specific D-ketopentose-oxidoreductase; assay: NADPH-specific D-ketopentose-oxidoreductase kinetic parameters; assay type: biochemical, P. ohmeri ATCC 20209; conditions: NADP^+ added in excess, in vitro
Text: As an illustration of its performances, the following tables indicate the enzyme activities involved in the arabitol metabolic pathway of Pichia ohmeri (Sophie […] Thesis, 1992) The Michaelis-Menten constants highlight the affinities of the NADH and NADPH-D-ketopentose-oxidoreductases for each substrate and the corresponding maximum velocities. [table] The Haldane relationship predicts in vivo enzyme kinetic behaviors. The inhibitory effect of NADP^+ on NADPH-specific D-ketopentose-oxidoreductase has been determined in vitro. The activity is 80% less when NADP^+ is added in excess.

OC[C@@H](O)C(O)[C@H](O)CO [D-Arabitol]
VM [1]: 0.8 U/mg

O=C(CO)[C@H](O)[C@H](O)COP(=O)(O)O [D-Ribulose-5-P]
Km [2]: 6.3 mM | VM [2]: 3 U/mg | Km [3]: 4.3 mM | VM [3]: 0.65 U/mg | Km [4]: 0.35 mM | VM [4]: 1.8 U/mg

O=C(CO)[C@H](O)[C@H](O)CO [D-Ribulose]
Km [5]: 90 mM | VM [5]: 1 U/mg | Km [1]: 72 mM | VM [1]: 3.4 U/mg

O=C(CO)[C@@H](O)[C@H](O)COP(=O)(O)O [D-Xylulose-5-P]
Km [2]: 6.6 mM | VM [2]: 0.7 U/mg | Km [3]: 16 mM | VM [3]: 0.11 U/mg | Km ([6]; Transketolase (D-ribose-5-P)): 0.2 mM | VM ([6]; Transketolase (D-ribose-5-P)): 0.9 U/mg | Km ([6]; Transketolase (Erythrose-4-P)): 0.6 mM | VM ([6]; Transketolase (Erythrose-4-P)): 1.45 U/mg

O=C(CO)[C@@H](O)[C@H](O)CO [D-Xylulose]
Km [5]: 5 mM | VM [5]: 0.6 U/mg | VM [1]: 1.5 U/mg

NC(=O)c1ccc[n+]([C@@H]2O[C@H](COP(=O)([O-])OP(=O)(O)OC[C@H]3O[C@@H](n4cnc5c(N)ncnc54)[C@H](OP(=O)(O)O)[C@@H]3O)[C@@H](O)[C@H]2O)c1 [NADP^+]
inhibitory effect: activity less [7]: 80%

OC[C@@H](O)[C@@H](O)[C@@H](O)CO [Ribitol]
Km [5]: 16 mM | VM [5]: 0.16 U/mg

OC[C@@H](O)[C@H](O)[C@@H](O)CO [Xylitol]
Km [5]: 7 mM | VM [5]: 0.2 U/mg | VM [1]: 0.15 U/mg
